Key:
recombinant Plk1 = recombinant Plk1 (Homo sapiens, UniProt P53350); experiment: In Vitro Plk1 Enzyme Assay (SPA, GST-Cdc25C phosphorylation); type: biochemical; conditions: ATP 64 nM, 90 minutes, read-out: IC50 (Plk1 enzyme inhibition)
[1] = tested on: human colon tumour cell line HT29; experiment: Cellular Assay (phosphohistone H3 Ser10 mitotic marker, HT29); type: cell-based; conditions: HT-29, 24 h, HT29 cells, read-out: IC50 (cellular assay, phosphohistone H3)

Chain of recombinant Plk1 (P53350 whole entry): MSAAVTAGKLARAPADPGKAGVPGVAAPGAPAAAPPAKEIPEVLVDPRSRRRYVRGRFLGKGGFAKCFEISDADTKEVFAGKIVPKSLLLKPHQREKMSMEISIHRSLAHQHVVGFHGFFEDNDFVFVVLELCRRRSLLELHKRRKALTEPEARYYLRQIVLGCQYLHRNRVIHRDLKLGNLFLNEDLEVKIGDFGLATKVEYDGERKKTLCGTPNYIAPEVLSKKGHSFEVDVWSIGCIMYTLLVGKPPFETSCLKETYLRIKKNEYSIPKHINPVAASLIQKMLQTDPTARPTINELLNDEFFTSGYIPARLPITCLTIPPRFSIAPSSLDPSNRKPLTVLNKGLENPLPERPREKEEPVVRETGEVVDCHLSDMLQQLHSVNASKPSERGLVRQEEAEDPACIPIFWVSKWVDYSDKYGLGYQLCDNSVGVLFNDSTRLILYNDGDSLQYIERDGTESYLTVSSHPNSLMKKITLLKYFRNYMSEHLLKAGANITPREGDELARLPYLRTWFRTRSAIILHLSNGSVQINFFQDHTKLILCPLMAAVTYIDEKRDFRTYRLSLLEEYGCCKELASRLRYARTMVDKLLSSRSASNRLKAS

Row | IC50 (recombinant Plk1) | IC50 [1] | SMILES
1 | < 1000 nM | < 30000 nM | CC(=O)N1CCc2cc(Nc3ncc4c(n3)N(C3CCCC3)CCC(=O)N4C)ccc21 [Example 124, 9-[(1-acetyl-2,3-dihydroindol-5-yl)amino]-6-cyclopentyl-2-methyl-2,6,8,10-tetrazabicyclo[5.4.0]undeca-8,10,12-trien-3-one]
2 | < 100000 nM | < 30000 nM | COCCNS(=O)(=O)c1ccc(Nc2ncc3c(n2)N(C2CCCC2)CCC(=O)N3C)cc1 [Example 125, 4-[(6-cyclopentyl-2-methyl-3-oxo-2,6,8,10-tetrazabicyclo[5.4.0]undeca-8,10,12-trien-9-yl)amino]-N-(2-methoxyethyl)benzenesulfonamide]
3 | < 1000 nM | < 30000 nM | CC(=O)N1CCN(c2ccc(Nc3ncc4c(n3)N(C3CCCC3)CCC(=O)N4C)cc2)CC1 [Example 128, 9-[[4-(4-acetylpiperazin-1-yl)phenyl]amino]-6-cyclopentyl-2-methyl-2,6,8,10-tetrazabicyclo[5.4.0]undeca-8,10,12-trien-3-one]
4 | < 1000 nM | < 30000 nM | CN1C(=O)CCN(C2CCCC2)c2nc(Nc3ccc(Cl)c(CO)c3)ncc21 [Example 131, 9-[[4-chloro-3-(hydroxymethyl)phenyl]amino]-6-cyclopentyl-2-methyl-2,6,8,10-tetrazabicyclo[5.4.0]undeca-8,10,12-trien-3-one]
5 | < 1000 nM | < 30000 nM | CN1C(=O)CCN(C2CCCC2)c2nc(Nc3ccc4[nH]c(-c5cccnc5)nc4c3)ncc21 [Example 132, 6-cyclopentyl-2-methyl-9-[(2-pyridin-3-yl-1H-benzoimidazol-5-yl)amino]-2,6,8,10-tetrazabicyclo[5.4.0]undeca-8,10,12-trien-3-one]
6 | < 100000 nM | < 30000 nM | CN1C(=O)CCN(C2CCCC2)c2nc(Nc3ccc(CNC(=O)c4ccccn4)cc3)ncc21 [Example 133, N-[[4-[(6-cyclopentyl-2-methyl-3-oxo-2,6,8,10-tetrazabicyclo[5.4.0]undeca-8,10,12-trien-9-yl)amino]phenyl]methyl]pyridine-2-carboxamide]
7 | < 100000 nM | < 1000 nM | CN1C(=O)CCN(C2CCCC2)c2nc(Nc3ccc(OCCN4CCOCC4)cc3)ncc21 [Example 135, 6-cyclopentyl-2-methyl-9-[[4-(2-morpholin-4-ylethoxy)phenyl]amino]-2,6,8,10-tetrazabicyclo[5.4.0]undeca-8,10,12-trien-3-one]
8 | < 1000 nM | < 30000 nM | COc1ccc(CCNC(C)=O)cc1Nc1ncc2c(n1)N(C1CCCC1)CCC(=O)N2C [Example 138, N-[2-[3-[(6-cyclopentyl-2-methyl-3-oxo-2,6,8,10-tetrazabicyclo[5.4.0]undeca-8,10,12-trien-9-yl)amino]-4-methoxy-phenyl]ethyl]acetamide]
9 | < 1000 nM | < 30000 nM | CCc1ccccc1Nc1ncc2c(n1)N(C1CCCC1)CCC(=O)N2C [Example 143, 6-cyclopentyl-9-[(2-ethylphenyl)amino]-2-methyl-2,6,8,10-tetrazabicyclo[5.4.0]undeca-8,10,12-trien-3-one]
10 | < 100000 nM | < 30000 nM | Cc1ccc(Oc2ccccc2Nc2ncc3c(n2)N(C2CCCC2)CCC(=O)N3C)cc1 [Example 159, 6-cyclopentyl-2-methyl-9-[[2-(4-methylphenoxy)phenyl]amino]-2,6,8,10-tetrazabicyclo[5.4.0]undeca-8,10,12-trien-3-one]
11 | < 1000 nM | < 30000 nM | CC(=O)c1cccc(Nc2ncc3c(n2)N(C2CCCC2)CCC(=O)N3C)c1 [Example 165, 9-[(3-acetylphenyl)amino]-6-cyclopentyl-2-methyl-2,6,8,10-tetrazabicyclo[5.4.0]undeca-8,10,12-trien-3-one]
12 | < 300 nM | < 30000 nM | CN1C(=O)CCN(C2CCCC2)c2nc(Nc3cccc(S(N)(=O)=O)c3)ncc21 [Example 170, 3-[(6-cyclopentyl-2-methyl-3-oxo-2,6,8,10-tetrazabicyclo[5.4.0]undeca-8,10,12-trien-9-yl)amino]benzenesulfonamide]
13 | < 1000 nM | < 30000 nM | CN1C(=O)CCN(C2CCCC2)c2nc(Nc3cccc(CO)c3)ncc21 [Example 173, 6-cyclopentyl-9-[[3-(hydroxymethyl)phenyl]amino]-2-methyl-2,6,8,10-tetrazabicyclo[5.4.0]undeca-8,10,12-trien-3-one]
14 | < 300 nM | < 1000 nM | COc1ccc(NC(C)=O)cc1Nc1ncc2c(n1)N(C1CCCC1)CCC(=O)N2C [Example 176, N-[3-[(6-cyclopentyl-2-methyl-3-oxo-2,6,8,10-tetrazabicyclo[5.4.0]undeca-8,10,12-trien-9-yl)amino]-4-methoxy-phenyl]acetamide]
15 | < 100000 nM | < 30000 nM | CC(=O)Nc1cccc(Nc2ncc3c(n2)N(C2CCCC2)CCC(=O)N3C)c1 [Example 177, N-[3-[(6-cyclopentyl-2-methyl-3-oxo-2,6,8,10-tetrazabicyclo[5.4.0]undeca-8,10,12-trien-9-yl)amino]phenyl]acetamide]
16 | < 1000 nM | < 30000 nM | Cc1ccc(CO)cc1Nc1ncc2c(n1)N(C1CCCC1)CCC(=O)N2C [Example 178, 6-cyclopentyl-9-[[5-(hydroxymethyl)-2-methyl-phenyl]amino]-2-methyl-2,6,8,10-tetrazabicyclo[5.4.0]undeca-8,10,12-trien-3-one]
17 | < 1000 nM | < 30000 nM | CN1C(=O)CCN(C2CCCC2)c2nc(Nc3cccc(CCO)c3)ncc21 [Example 179, 6-cyclopentyl-9-[[3-(2-hydroxyethyl)phenyl]amino]-2-methyl-2,6,8,10-tetrazabicyclo[5.4.0]undeca-8,10,12-trien-3-one]
18 | < 100000 nM | < 30000 nM | CN1C(=O)CCN(C2CCCC2)c2nc(Nc3cccc(OCCN4CCOCC4)c3)ncc21 [Example 180, 6-cyclopentyl-2-methyl-9-[[3-(2-morpholin-4-ylethoxy)phenyl]amino]-2,6,8,10-tetrazabicyclo[5.4.0]undeca-8,10,12-trien-3-one]
19 | < 1000 nM | < 1000 nM | CN1C(=O)CCN(C2CCCC2)c2nc(Nc3ccc(C(=O)NCCN4CCOCC4)cc3Cl)ncc21 [Example 184, 3-chloro-4-[(6-cyclopentyl-2-methyl-3-oxo-2,6,8,10-tetrazabicyclo[5.4.0]undeca-8,10,12-trien-9-yl)amino]-N-(2-morpholin-4-ylethyl)benzamide]
20 | < 300 nM | < 300 nM | CN1CCC(NC(=O)c2ccc(Nc3ncc4c(n3)N(C3CCCC3)CCC(=O)N4C)c(Cl)c2)CC1 [Example 185, 3-chloro-4-[(6-cyclopentyl-2-methyl-3-oxo-2,6,8,10-tetrazabicyclo[5.4.0]undeca-8,10,12-trien-9-yl)amino]-N-(1-methyl-4-piperidyl)benzamide]
21 | < 300 nM | < 30000 nM | CN1CCC(NC(=O)c2ccc(Nc3ncc4c(n3)N(C3CCCC3)CCC(=O)N4C)c(O)c2)CC1 [Example 186, 4-[(6-cyclopentyl-2-methyl-3-oxo-2,6,8,10-tetrazabicyclo[5.4.0]undeca-8,10,12-trien-9-yl)amino]-3-hydroxy-N-(1-methyl-4-piperidyl)benzamide]
22 | < 100000 nM | < 30000 nM | CN1CCC(NC(=O)c2c(F)cc(Nc3ncc4c(n3)N(C3CCCC3)CCC(=O)N4C)cc2F)CC1 [Example 187, 4-[(6-cyclopentyl-2-methyl-3-oxo-2,6,8,10-tetrazabicyclo[5.4.0]undeca-8,10,12-trien-9-yl)amino]-2,6-difluoro-N-(1-methyl-4-piperidyl)benzamide]
23 | < 300 nM | < 300 nM | CN1CCC(NC(=O)c2ccc(Nc3ncc4c(n3)N(C3CCCC3)CCC(=O)N4C)cc2F)CC1 [Example 189, 4-[(6-cyclopentyl-2-methyl-3-oxo-2,6,8,10-tetrazabicyclo[5.4.0]undeca-8,10,12-trien-9-yl)amino]-2-fluoro-N-(1-methyl-4-piperidyl)benzamide]
24 | < 1000 nM | < 1000 nM | CN1C(=O)CCN(C2CCCC2)c2nc(Nc3ccc(C(=O)NCCN4CCOCC4)cc3)ncc21 [Example 191, 4-[(6-cyclopentyl-2-methyl-3-oxo-2,6,8,10-tetrazabicyclo[5.4.0]undeca-8,10,12-trien-9-yl)amino]-N-(2-morpholin-4-ylethyl)benzamide]
25 | < 300 nM | < 300 nM | Cc1cc(C(=O)NC2CCN(C)CC2)ccc1Nc1ncc2c(n1)N(C1CCCC1)CCC(=O)N2C [Example 193, 4-[(6-cyclopentyl-2-methyl-3-oxo-2,6,8,10-tetrazabicyclo[5.4.0]undeca-8,10,12-trien-9-yl)amino]-3-methyl-N-(1-methyl-4-piperidyl)benzamide]
26 | < 300 nM | < 300 nM | CN1CCC(NC(=O)c2ccc(Nc3ncc4c(n3)N(C3CCCC3)CCC(=O)N4C)c(F)c2)CC1 [Example 194, 4-[(6-cyclopentyl-2-methyl-3-oxo-2,6,8,10-tetrazabicyclo[5.4.0]undeca-8,10,12-trien-9-yl)amino]-3-fluoro-N-(1-methyl-4-piperidyl)benzamide]
27 | < 1000 nM | < 30000 nM | COCCOc1cc(C(=O)NC2CCN(C)CC2)ccc1Nc1ncc2c(n1)N(C1CCCC1)CCC(=O)N2C [Example 195, 4-[(6-cyclopentyl-2-methyl-3-oxo-2,6,8,10-tetrazabicyclo[5.4.0]undeca-8,10,12-trien-9-yl)amino]-3-(2-methoxyethoxy)-N-(1-methyl-4-piperidyl)benzamide]
28 | < 1000 nM | < 1000 nM | CC(C)Oc1cc(C(=O)NC2CCN(C)CC2)ccc1Nc1ncc2c(n1)N(C1CCCC1)CCC(=O)N2C [Example 197, 4-[(6-cyclopentyl-2-methyl-3-oxo-2,6,8,10-tetrazabicyclo[5.4.0]undeca-8,10,12-trien-9-yl)amino]-N-(1-methyl-4-piperidyl)-3-propan-2-yloxy-benzamide]

Source: patent publication US7709471B2, “Compounds” (AstraZeneca AB, priority 2006, dated 2010)
